# Values joined by “and” are separate entries in the source; they are usually repeats but may differ in a detail not shown here. Identical values can stand only once.
# System: collagen-induced arthritis
# Assay: Collagen-induced arthritis (CIA) model: clinical scores and paw volume
# Format: in vivo, Lewis rats
# Details: for Percent Inhibition in clinical score (Mean ± SD) / Percent Inhibition in paw volume (Mean ± SD): CIA rats; for Overall Clinical Score: individual animals 1-8
# [1] = Day 0, L paw, group 5 CIA + Compound A 1 mg/kg
# [2] = Day 0, L paw, group 6 CIA + Compound A 3 mg/kg
# [3] = Day 0, L paw, group 7 CIA + Compound A 10 mg/kg
# [4] = Day 0, R paw, group 5 CIA + Compound A 1 mg/kg
# [5] = Day 0, R paw, group 6 CIA + Compound A 3 mg/kg
# [6] = Day 0, R paw, group 7 CIA + Compound A 10 mg/kg
# [7] = Day 0, CIA + Compound A 1 mg/kg
# [8] = Day 0, CIA + Compound A 3 mg/kg
# [9] = Day 0, CIA + Compound A 10 mg/kg
# [10] = Day 6, L paw, group 5 CIA + Compound A 1 mg/kg
# [11] = Day 6, L paw, group 6 CIA + Compound A 3 mg/kg
# [12] = Day 6, L paw, group 7 CIA + Compound A 10 mg/kg
# [13] = Day 6, R paw, group 5 CIA + Compound A 1 mg/kg
# [14] = Day 6, R paw, group 6 CIA + Compound A 3 mg/kg
# [15] = Day 6, R paw, group 7 CIA + Compound A 10 mg/kg
# [16] = Day 6, CIA + Compound A 1 mg/kg
# [17] = Day 6, CIA + Compound A 3 mg/kg
# [18] = Day 6, CIA + Compound A 10 mg/kg
# [19] = Day 12, L paw, group 5 CIA + Compound A 1 mg/kg
# [20] = Day 12, L paw, group 6 CIA + Compound A 3 mg/kg
# [21] = Day 12, L paw, group 7 CIA + Compound A 10 mg/kg
# [22] = Day 12, R paw, group 5 CIA + Compound A 1 mg/kg
# [23] = Day 12, R paw, group 6 CIA + Compound A 3 mg/kg
# [24] = Day 12, R paw, group 7 CIA + Compound A 10 mg/kg
# [25] = Day 12, CIA + Compound A 1 mg/kg
# [26] = Day 12, CIA + Compound A 3 mg/kg
smiles,measurement,setting,value
"Cn1cc(-c2ccccc2)c(-c2cn(C)c(=O)c3[nH]c(-c4cnn(C(F)(F)F)c4)cc23)cc1=O [Compound A, 6-methyl-4-(1-methyl-2-oxo-5-phenyl-1,2-dihydropyridin-4-yl)-2-(1-(trifluoromethyl)-1H-pyrazol-4-yl)-1,6-dihydro-7H-pyrrolo[2,3-c]pyridin-7-one]",Reduction in clinical score compared to CIA+placebo,"10 mg/kg PO QD, Day 21",> 70%
same,Reduction in paw volume compared to CIA+placebo,"10 mg/kg PO QD, Day 21",> 70%
same,Anti-inflammatory activity versus CIA placebo and CIA+10 mg/kg GSK620,"1, 3, and 10 mg/kg",superior (statistically)
same,Percent Inhibition in clinical score (Mean ± SD),1 mg/kg,60 ± 21%
same,Percent Inhibition in paw volume (Mean ± SD),1 mg/kg,58 ± 23%
same,Percent Inhibition in clinical score (Mean ± SD),3 mg/kg,70 ± 8%
same,Percent Inhibition in paw volume (Mean ± SD),3 mg/kg,75 ± 12%
same,Average animal paw volume,[1],1.33 mL
same,Average animal paw volume percent change (%),[1],0.00%
same,Average animal paw volume,[2],1.32 mL
same,Average animal paw volume percent change (%),[2],0.00%
same,Average animal paw volume,[3],1.32 mL
same,Average animal paw volume percent change (%),[3],0.00%
same,Average animal paw volume,[4],1.33 mL
same,Average animal paw volume percent change (%),[4],0.00%
same,Average animal paw volume,[5],1.31 mL
same,Average animal paw volume percent change (%),[5],0.00%
same,Average animal paw volume,[6],1.31 mL
same,Average animal paw volume percent change (%),[6],0.00%
same,"Average detailed clinical score, left forelimb",[7],0.00
same,"Average detailed clinical score, left hind limb",[7],0.00
same,"Average detailed clinical score, right forelimb",[7],0.00
same,"Average detailed clinical score, right hind limb",[7],0.00
same,"Average detailed clinical score, score",[7],0.00
same,Average overall clinical score,[7],0
same,Overall Clinical Score,[7],0
same,"Average detailed clinical score, left forelimb",[8],0.00
same,"Average detailed clinical score, left hind limb",[8],0.00
same,"Average detailed clinical score, right forelimb",[8],0.00
same,"Average detailed clinical score, right hind limb",[8],0.00
same,"Average detailed clinical score, score",[8],0.00
same,Average overall clinical score,[8],0
same,Overall Clinical Score,[8],0
same,"Average detailed clinical score, left forelimb",[9],0.00
same,"Average detailed clinical score, left hind limb",[9],0.00
same,"Average detailed clinical score, right forelimb",[9],0.00
same,"Average detailed clinical score, right hind limb",[9],0.00
same,"Average detailed clinical score, score",[9],0.00
same,Average overall clinical score,[9],0
same,Average animal paw volume,[10],1.35 mL
same,Average animal paw volume percent change (%),[10],1.60%
same,Average animal paw volume,[11],1.34 mL
same,Average animal paw volume percent change (%),[11],1.44%
same,Average animal paw volume,[12],1.34 mL
same,Average animal paw volume percent change (%),[12],1.64%
same,Average animal paw volume,[13],1.35 mL
same,Average animal paw volume percent change (%),[13],1.41%
same,Average animal paw volume,[14],1.34 mL
same,Average animal paw volume percent change (%),[14],1.63%
same,Average animal paw volume,[15],1.33 mL
same,Average animal paw volume percent change (%),[15],1.59%
same,"Average detailed clinical score, left forelimb",[16],0.00
same,"Average detailed clinical score, left hind limb",[16],0.00
same,"Average detailed clinical score, right forelimb",[16],0.00
same,"Average detailed clinical score, right hind limb",[16],0.00
same,"Average detailed clinical score, score",[16],0.00
same,Average overall clinical score,[16],0
same,Overall Clinical Score,[16],0
same,"Average detailed clinical score, left forelimb",[17],0.00
same,"Average detailed clinical score, left hind limb",[17],0.00
same,"Average detailed clinical score, right forelimb",[17],0.00
same,"Average detailed clinical score, right hind limb",[17],0.00
same,"Average detailed clinical score, score",[17],0.00
same,Average overall clinical score,[17],0
same,Overall Clinical Score,[17],0
same,"Average detailed clinical score, left forelimb",[18],0.00
same,"Average detailed clinical score, left hind limb",[18],0.00
same,"Average detailed clinical score, right forelimb",[18],0.00
same,"Average detailed clinical score, right hind limb",[18],0.00
same,"Average detailed clinical score, score",[18],0.00
same,Average overall clinical score,[18],0
same,Average animal paw volume,[19],1.38 mL
same,Average animal paw volume percent change (%),[19],4.24%
same,Average animal paw volume,[20],1.37 mL
same,Average animal paw volume percent change (%),[20],4.35%
same,Average animal paw volume,[21],1.36 mL
same,Average animal paw volume percent change (%),[21],3.32%
same,Average animal paw volume,[22],1.42 mL
same,Average animal paw volume percent change (%),[22],6.44%
same,Average animal paw volume,[23],1.36 mL
same,Average animal paw volume percent change (%),[23],3.50%
same,Average animal paw volume,[24],1.37 mL
same,Average animal paw volume percent change (%),[24],4.40%
same,"Average detailed clinical score, left forelimb",[25],0.00
same,"Average detailed clinical score, left hind limb",[25],0.13
same,"Average detailed clinical score, right forelimb",[25],0.25
same,"Average detailed clinical score, right hind limb",[25],0.00
same,"Average detailed clinical score, score",[25],0.38
same,Average overall clinical score,[25],0
same,Overall Clinical Score,"Day 12, CIA + Compound A 1 mg/kg, 1 mg/kg",0 (7×) and 1
same,"Average detailed clinical score, left forelimb",[26],0.00
same,"Average detailed clinical score, left hind limb",[26],0.25
same,"Average detailed clinical score, right forelimb",[26],0.00
same,"Average detailed clinical score, right hind limb",[26],0.25
same,"Average detailed clinical score, score",[26],0.50
same,Average overall clinical score,[26],0
same,Overall Clinical Score,"Day 12, CIA + Compound A 3 mg/kg, 3 mg/kg",0
